For series [1], the system named is CT26 colon adenocarcinoma. Nature of the series: Growth inhibition of footpad CT26 colon adenocarcinoma in CB6F1 mice, second series (FIGS. 2 and 3). The format is in vivo, mouse. How it is done: (§1) A further series of tests are conducted whereby tumors are inoculated by injections of 2.5×10^5 CT26 cells (over 90% viability) in 50 μl of phosphate-buffered saline into the right hind footpad of CB6F1 mice. The treatments were initiated at a variety of times after inoculation of the tumors. The injection schedules started either 1 or 5 days after tumor inoculation when none of the tumors are palpable or when the tumors are clearly palpable (average calculated weight of 100 mg), which occur in 100% of the inoculated mice after 8-11 days. Mice are randomized, divided into groups, and injected daily with 2.2 ml of saline, adenosine, AMP, or ATP (compounds are in sterile saline solutions at concentrations of 25 mM with AMP and ATP solutions adjusted to pH 6.2). Injections are administered intraperitoneally with 30 gauge needles and the mice are lightly anesthetized with […]. The mice are weighed and tumor sizes measured before the start of the treatment schedule and every three days during and after the treatment schedule. These determinations are performed before injections during the treatment period.
(§2) In particular, see FIG. 2. FIG. 2 illustrates inhibition of tumor growth (---) and host weight loss (-) in tumor-bearing mice by treatment with adenine nucleotides. Mice (CB6F1, 8 week old males) bearing palpable CT26 footpad tumors (on day 9 after tumor inoculation) are treated with saline (.smallcircle.), adenosine (o), AMP (Δ), or ATP (.quadrature.) as described herein. An untreated group is also included (x). Arrows indicate days of injection.
The magnitude of the antitumor activities of AMP and ATP depends to a small extent on the pH of the solution administered intraperitoneally. This property is probably related to the number of negative charges on the phosphate groups (the pKa of the secondary phosphate is around 6.6). AMP and especially ATP have some buffering capacity, and at a pH below 6.6 they carry a smaller net charge than at a physiological pH. The lower charge of these molecules enhances the initial (first hour) transport of AMP and ATP across the peritoneal membrane and into the systemic circulation (see Torres, et al., 1978, Pharmacol., 17, 330-340). […] The treatment schedule of palpable CT26 tumors which is illustrated in FIG. 2 consistently yields 10-20% of "cures". These mice remain tumor-free for at least two months.
FIG. 3 further illustrates inhibition of host weight loss in tumor-bearing animals by treatment with adenine nucleotides. Mice (CB6F1, males, 7 weeks old, in A, 10 weeks old in B, […]) with saline (.smallcircle.), adenosine (o), AMP (Δ), or ATP (.quadrature.) are initiated 1 day (A), 5 days (B), or 9 days after tumor inoculation (when all the tumors were palpable) (C). Arrows indicate days of injection. Experimental procedures were outlined in the text.

In series [2] the test system is RBC ATP pools. Nature of the series: Stability of expanded RBC ATP pools in washed isolated RBCs in vitro after i.p. injection (Table 5). Also noted: species or system mouse. As to conditions: average of two experiments. How it is done:
(§3) The mice are anesthetized with ether during the procedure. Plasma or Hanks' (Balanced Salt Solution) BSS media from incubated isolated RBCs (Red Blood Cells) are prepared by centrifugation of whole blood or RBCs in a Beckman microfuge (30 seconds at 8000 xg) and samples of 100 μl are added to 1 ml of ice-cold 7% trichloroacetic acid. Red blood cells are prepared by centrifugation of whole blood (1500 xg for 5 minutes at 4° C.) and removal of plasma and the buffy coat is followed by a wash of the pelleted RBCs (from 250 μl of whole blood) in 5 ml of ice-cold Hanks' BSS. After centrifugations, the RBCs pellet is resuspended in Hanks' BSS to yield a total volume with the original hematocrit (percent of RBCs volume in the whole blood). Aliquots of 20 μl of RBCs suspensions or whole blood are added to 1 ml of ice-cold 7% trichloroacetic acid. Extraction of acid-soluble nucleotides and determinations of ATP levels by luminometry followed procedures discussed hereinabove. Levels of [^3 H]ATP in whole blood, RBCs, plasma, or RBCs incubation media (Hanks' BSS) are determined after incorporation of 250 μCi of [^3 H]adenosine of specific radioactivity of 30 Ci/mmol (1 Ci=3.7×10^10 becquerels) into whole blood or RBC suspensions (250 μl total) followed by immediate trichloroacetic acid extractions as described above. Two dimensional thin layer chromatography on poly(ethylene)imine cellulose with an unlabeled ATP carrier is performed according to Bochner and Ames, J. Biol. Chem., 257, pp. 9759-9769, 1982). For the determination of whole blood or isolated RBC [^3 H]ATP pools, 10 μl of a 1 ml initial trichloroacetic acid extract are chromatographed. Determinations of [^3 H]ATP levels in blood plasma or RBCs incubation media are performed on 300 μl of an initial 1 ml trichloroacetic acid extract which are lyophilized and redissolved in 15 μl of water. After chromatography, the spots corresponding to the ATP carrier are cut, eluted with 0.5 ml of 4 N ammonium hydroxide, and radioactivity determined in 10 ml of scintillation fluid.
Two hour incubations of washed isolated RBCs containing normal or expanded ATP pools in Hanks' BSS result in relatively small decreases in RBC ATP pools with the expanded pools being maintained well above normal levels (Table 5). The expansions of RBC ATP pools after i.p. administration of AMP or ATP in vivo is presumably the result of their dephosphorylation followed by the RBCs uptake of the adenosine which is generated in situ.

Series [3] relates to RBC ATP pools. Kind of series: Expansion of RBC ATP pools and blood plasma ATP levels after i.p. injection (Table 4). Type of series: in vivo, mouse. How it is done: as §3
Single intraperitoneal injections of 2 ml of 35 mM of AMP or ATP in saline at pH 6.2 into CB6F1 mice result in expansions of RBC ATP pools in these mice (see Table 4).
The expansions of RBC ATP pools after i.p. injections of AMP or ATP could be detected 30 minutes after injections and lasted for approximately 6-8 hours after the nucleotides were completely adsorbed across the peritoneal membrane and into the systemic circulation. The rates of adsorption of intraperitoneal AMP or ATP solutions varied in different strains of mice. […] These plasma ATP levels originate in RBCs since they can be metabolically labeled by [^3 H]adenosine. Plasma ATP pools which originate in the dense granules of blood platelets would not be radioactively labeled under the same conditions (e.g., Holmsen, 1985, Seminars in Hematol, 22, 219-240). The experiments described in Tables 4 and 5 include uptake of [^3 H]adenosine by whole blood (Table 4) or isolated washed RBCs (Table 5 below). In both cases, all the extracellular ATP, determined seconds after the uptake of [^3 H]adenosine, is metabolically labeled.

Series [4] is described as follows: Inhibition of host weight loss (cancer cachexia) in CT26 tumor-bearing mice. The format is in vivo, mouse. How it is done:
as §1, §2
FIG. 3 further illustrates inhibition of host weight loss in tumor-bearing animals by treatment with adenine nucleotides. Mice (CB6F1, males, 7 weeks old, in A, 10 weeks old in B, C) are inoculated with CT26 tumors and daily treatments (for 10 consecutive days) with saline (.smallcircle.), adenosine (o), AMP (Δ), or ATP (.quadrature.) are initiated 1 day (A), 5 days (B), or 9 days after tumor inoculation (when all the tumors were palpable) (C). Arrows indicate days of injection. Experimental procedures were outlined in the text.

The subject of series [5] is RBC ATP pools. Kind of series: RBC ATP pools after in vitro incubation of whole mouse blood with 1 mM compound (Table 6). Type of series: cell-based. The conditions noted are these: 1 mM compound, 30 min, bioluminometry. How it is done:
^+ RBC ATP pools were determined in isolated washed RBCs after
incubations of whole blood with 1 mM of the specified compound by
bioluminometry. Data represent means ± S.D. of three separate

Where [6] appears, read: 5 hours after i.p. injection of 2 ml of 35 mM, CB6F1, bioluminometry, citrate-dextrose.

As to `Nc1ncnc2c1ncn2[C@@H]1O[C@H](CO)[C@@H](O)[C@H]1O` [Adenosine, adenosine], in series [1] (CB6F1 mice, in words), the “Anticancer activities against established footpad CT26 colon adenocarcinoma” value is listed as “without such effects”. Besides, the “Deaths before stated day after tumor inoculation” value in series [1] (FIG. 2 experiment, palpable CT26 tumors, 10 animals per group) was “No deaths occurred before day 22”. For the same compound, the “Inhibition of growth of palpable CT26 tumors (in words)” value in series [1] (daily i.p. in 2.2 ml saline, pH 6.2, 12 days, starting after tumors palpable, equimolar amounts) is recorded as “Much weaker anticancer activities”. Further, the “Medium (Hanks' BSS) [^3 H]ATP levels immediately after [^3 H]adenosine incorporation into isolated, washed RBCs (at time 0)” value in the series with RBC ATP pools [2] (time 0) is 1.20 µM. In addition, in the series with RBC ATP pools [2] (time 0, bioluminometry), the “ATP levels in the medium (Hanks' BSS)” value was found to be 1.71 µM. Besides, in the series with RBC ATP pools [2] (washed RBCs in Hanks' BSS, 37° C., 0 min), the “RBC ATP pools (37° C.), 0 min” value was found to be 0.69 mM. Moreover, the “RBC ATP pools (37° C.), 120 min” value with RBC ATP pools [2] (washed RBCs in Hanks' BSS, 37° C., 120 min) worked out at 0.54 mM. In the series with RBC ATP pools [3] (setting [6]), the “Plasma ATP levels” value is 1.12 ± 0.28 µM and the “RBC ATP pools” value is recorded as 1.10 ± 0.24 mM. In the series with RBC ATP pools [3] (5 hours after i.p. injection of 2 ml of 35 mM, CB6F1, radioactivity corrected by RBC specific radioactivity), the “Plasma [^3 ]ATP levels immediately after [^3 H]adenosine incorporation into whole blood” value amounted to 0.77 ± 0.30 µM. Also, the “Expansion of RBC ATP pools (in words)” value with RBC ATP pools [3] (i.p. injection, host animals) was “only slightly effective in expanding mouse RBC ATP pools”. For the same compound, the “Deaths before stated day after tumor inoculation” value in series [4] (FIG. 3, treatment initiated day 1 (A), day 5 (B) or day 9 (C)) is recorded as “No deaths occurred before day 19 (A) or day 25 (B,C)”. The “Effect on tumor growth and rate of weight loss, schedules ending before tumors become large” value in series [4] (FIGS. 3A and 3B, treatment from day 1 or day 5) is “having only a small effect on either of the two phenomena”. In addition, the “Inhibition of host weight loss (in words)” value in series [4] (tumors of similar sizes, FIG. 2 data) is given as “inhibit weight loss”. The “RBC ATP pools (after 30 min incubations in heparinized mouse blood)” value in the series with RBC ATP pools [5] turned out to be 0.55 ± 0.17 µM.

The values above are taken from patent US5049372A, “Anticancer activities in a host by increasing blood and plasma adenosine 5'-triphosphate (ATP) levels” (priority 1988, dated 1991).
